Where two headings read alike, the source gives them in different places. Marks after values point to notes of the source that are not given here.
Tests used:
rabbits = conditions: cited from earlier work
Candida rugosa lipase = test: Inhibition of Candida rugosa lipase toward emulsified triolein substrate PC/PI; assay type: biochemical
Experimental: Recombinant hormone-sensitive lipase protein isolated from a bacterial expression vector was pre-incubated with a compound of the invention (e.g., 100 μM) prior to the addition of substrate, emulsified triolein phosphatidylcholine/phosphatidylinositol (PC/PI), to initiate the reaction. At various time points, aliquots of the reaction were taken, and the level of glycerol used as an index of enzyme activity. Pharmacological specificity is determined by incubating test compound with other mammalian and non-mammalian lipase enzyme systems to assess inhibition of activity. The assay was conducted using triolein concentrations from 42 μM to 835 μM.

KK/Ay mice = test: Effects in fasted KK/Ay mice (plasma lipids and glucose); assay type: in vivo; conditions: daily intraperitoneal for 2 weeks
Experimental: (§1) Male, C57/B16J lean mice were purchased from Jackson Laboratories, Bar Harbor, Me. Animals were housed and maintained in accordance with NIH guidelines and had free access to water and food ad libitum. Test compounds of the present invention were suspended in 0.25% methylcellulose (w/v in distilled water) and stored at −20° C. in single use aliquots. Animals received a daily dose via the intraperitoneal route of administration for 2 weeks. After the last dose, animals were fasted overnight. On the following morning, a 250 μl blood sample was drawn via the retro-orbital sinus into a tube containing an EDTA-saline solution and centrifuged at 1,200×g for 15 min. The plasma fraction was analyzed for non-esterified free fatty acid content (NEFA) using the NEFA C diagnostic kit (WAKO Chemicals USA, Richmond, Va.), and glycerol with the triglyceride GPO-Trinder diagnostic kit (Sigma) modified for use on a BM Hitachi 911 clinical chemistry analyzer. P-values from a student's t-test were calculated using the Prizm software data analysis program (Graphpad, Sorrento Calif.).
Male, KK/Ay mice were purchased from Clea Japan USA, Pennington, N.J. At 4 months of age, animals received daily intraperitoneal administration of 2α-benzoyloxy-5,7,8αH-eudesma-4(15), 11(13)-dien-8,12-olide for 2 weeks. As described in Example 10, fasting plasma NEFA values were obtained. In addition, cholesterol and triglycerides were measured using BM reagent assay kits on a BM Hitachi 911 clinical chemistry analyzer. […] Plasma glucose levels were measured using a Boehringer Mannheim reagent assay kits on a Boehringer Mannheim Hitachi 911 clinical chemistry w analyzer.

C57/B16J lean mice = test: Circulating free fatty acid levels in overnight-fasted normal mice; assay type: in vivo; conditions: 50 mg/kg daily intraperitoneal for 2 weeks
Experimental: as §1

For C=C1C(=O)O[C@@H]2C[C@@]3(C)CCC[C@H](C)C3=C[C@H]12 [alantolactone, 4,7,8αH-eudesma-5(6), 11(13)-dien-8,12-olide], the “effect on blood glucose” value (rabbits; moderate dose) is listed as “induce hypoglycemia”, the “effect on hyperglycemia induced by food” value (rabbits; rabbit, in vivo) is listed as “inhibit hyperglycemia induced by food” and the “effect on blood glucose” value (rabbits; rabbits, high dose) is listed as “induce hyperglycemia”.
With C=C1C(=O)O[C@@H]2C[C@@]3(C)C[C@@H](OC(=O)c4ccccc4)CC(=C)[C@@H]3C[C@H]12 [2α-benzoyloxy-5,7,8αH-eudesma-4(15),11(13)-dien-8,12-olide] the “inhibition of Candida rugosa lipase (in words)” value (Candida rugosa lipase; emulsified triolein substrate PC/PI) was “did not inhibit enzyme activity”, the “% Inhibition (Candida lipase)” value (Candida rugosa lipase; triolein substrate 42 μM) was 40% and the “Candida Lipase + test compound (enzyme activity)” value (from here on “Candida Lipase + test compound”) (Candida rugosa lipase; triolein substrate 42 μM) was 3.21. The “% Inhibition (Candida lipase)” value (Candida rugosa lipase; triolein substrate 83.5 μM) was −12%, the “Candida Lipase + test compound” value (Candida rugosa lipase; triolein substrate 83.5 μM) was 11.59 and the “% Inhibition (Candida lipase)” value (Candida rugosa lipase; triolein substrate 167 μM) was 6.3%. The “Candida Lipase + test compound” value (Candida rugosa lipase; triolein substrate 167 μM) was 14.14, the “% Inhibition (Candida lipase)” value (Candida rugosa lipase; triolein substrate 334 μM) was 3.6% and the “Candida Lipase + test compound” value (Candida rugosa lipase; triolein substrate 334 μM) was 22.68. For the same compound, the “% Inhibition (Candida lipase)” value (Candida rugosa lipase; triolein substrate 501 μM) was −1.7%, the “Candida Lipase + test compound” value (Candida rugosa lipase; triolein substrate 501 μM) was 60.13 and the “% Inhibition (Candida lipase)” value (Candida rugosa lipase; triolein substrate 668 μM) was −1.1%. For the same compound, the “Candida Lipase + test compound” value (Candida rugosa lipase; triolein substrate 668 μM) was 93.59, the “% Inhibition (Candida lipase)” value (Candida rugosa lipase; triolein substrate 835 μM) was 1.0% and the “Candida Lipase + test compound” value (Candida rugosa lipase; triolein substrate 835 μM) was 89.71. The “fasting plasma NEFA” value (KK/Ay mice) was “significant reductions”, the plasma cholesterol (KK/Ay mice) was “significant reductions” and the plasma glycerol (KK/Ay mice) was “significant reductions”. The plasma triglycerides (KK/Ay mice) was “significant reductions”, the “fasting plasma glucose level” value (KK/Ay mice; control mice 184±24 mg/dL, p <0.01) was 90 ± 29 mg/dL and the “NEFA (fasting plasma)” value (C57/B16J lean mice; vehicle 1.108) was 0.808 mM. The “Glycerol (fasting plasma)” value (C57/B16J lean mice; vehicle 36) was 28^b mg/dl and the “% reduction NEFA” value (C57/B16J lean mice; vs vehicle) was 27%.
